pIC50: −log10 of the molar value. Structures can show the parent of a compound that is named as a salt.

The assay has as its target T1, human Glucose-dependent Insulinotropic Polypeptide Receptor (hGIPR) (Homo sapiens, UniProt P48546).
T1 sequence (P48546 22-466): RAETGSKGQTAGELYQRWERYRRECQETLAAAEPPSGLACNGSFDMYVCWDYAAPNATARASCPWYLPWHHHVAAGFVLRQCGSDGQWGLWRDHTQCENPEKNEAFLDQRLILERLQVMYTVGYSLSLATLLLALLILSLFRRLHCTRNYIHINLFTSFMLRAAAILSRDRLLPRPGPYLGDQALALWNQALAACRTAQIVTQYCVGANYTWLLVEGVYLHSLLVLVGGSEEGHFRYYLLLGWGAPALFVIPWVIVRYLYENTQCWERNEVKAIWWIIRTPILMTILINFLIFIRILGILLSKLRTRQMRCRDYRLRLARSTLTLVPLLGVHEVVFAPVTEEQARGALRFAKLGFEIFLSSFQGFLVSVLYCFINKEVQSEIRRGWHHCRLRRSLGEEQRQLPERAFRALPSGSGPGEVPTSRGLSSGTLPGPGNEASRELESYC
Put plainly: Functional in vitro GIPR antagonist potency assay (cAMP HTRF, CHO-K1 cells stably expressing hGIPR, hGIP stimulation at about EC80). The conditions noted are these: geometric mean, hGIP at estimated EC80, examples marked ^2: overall geometric mean of multiple forms (including salts) tested. The class given is cell-based. How it is done:
Example AA. Functional In Vitro GIPR Antagonist Potency Assay
The functional in vitro antagonist potency for test compounds was determined by monitoring intracellular cyclic adenosine monophosphate (cAMP) levels in Chinese hamster ovary (CHO)—K1 cells stably expressing the human Glucose-dependent Insulinotropic Polypeptide Receptor (hGIPR). Following agonist activation, hGIPR associates with the G-protein complex causing the Gαs subunit to exchange bound guanosine diphosphate (GDP) for guanosine triphosphate (GTP), followed by dissociation of the Gαs-GTP complex. The activated Gas subunit can couple to downstream effectors to regulate the levels of second messengers or cAMP within the cell. Thereby, determination of intracellular cAMP levels allows for pharmacological characterization. Intracellular cAMP levels are quantitated using a homogenous assay utilizing the Homogeneous Time Resolved Fluorescence (HTRF) technology from Perkin Elmer. […] The two entities compete for binding to a monoclonal anti-cAMP antibody labeled with cryptate. The specific signal is inversely proportional to the concentration of cAMP in the cells.
Test compounds were solubilized to a concentration of 30 mM in 100% dimethyl sulfoxide (DMSO). An 11-point dilution series using 1 in 3.162-fold serial dilutions was created in 100% DMSO with a top concentration of 8 mM. The serially diluted compound was spotted with an Echo Acoustic liquid handler (Beckman Coulter) into a 384-well assay plate (Corning, Cat No. 3824) at 50 nL/well with duplicate points at each concentration, at a 200× final assay concentration (FAC). The final compound concentration range in the assay was 40 μM to […], with a final DMSO concentration of 0.5%.
Frozen assay-ready vials (at 1×10^7 cells/vial) of CHO-K1 cells stably expressing the Gs-coupled human GIPR receptor (Eurofins, DiscoverX, Cat No. 95-0146C2) were thawed, counted, and resuspended in assay buffer consisting of Hank's Balanced Salt Solution (HBSS, Lonza Cat No. 10-527) containing 20 mM (4-(2-hydroxyethyl)-1-piperazineethanesulfonic acid (HEPES, Lonza, Cat No. 17-737E), 0.1% bovine serum albumin (BSA, Sigma, Cat No. A7979), and 200 μM 3-isobutyl-1-methylxanthine (IBMX, Sigma, Cat No. 15879) at a density of 4×10^5 cells/mL. Cells were added to assay plate (5 μL/well of 4×10^5 cells/mL stock for 2,000 cells/well final) containing 50 nL of 200× FAC test compound, and incubated at 37° C. (95% O2: 5% CO2) for 2 hours, with micro-clime lids (Labcyte, Cat No. LLS-0310). Following the 2-hour cell and compound incubation, a stimulation mix comprised of hGIPR agonist human glucose-dependent insulinotropic polypeptide (hGIP, full length, Sigma Cat No. G2269) in assay buffer/0.1% DMSO was added to the assay plate (5 μL/well) at an estimated EC80 FAC (based on previous hGIP agonist curves) and incubated for another 30 minutes with micro-clime lids at 37° C. (95% O2: 5% CO2), after which intracellular cAMP levels were quantified as per Perkin Elmer's protocol (5 μL of d2 and then 5 μL cryptate, incubated for 1 hour at room temperature). Emission spectra of samples were measured on a Pherastar plate reader (BMG Labtech Inc) using a HTRF protocol (excitation, 320 nm; emission, 665 nm/620 nm).
(95% O2: 5% CO2), with a micro-clime lid. Following the 2-hour cell and DMSO incubation, a hGIP concentration response curve at 2× FAC (12-point curve using 1 in 3 serial dilutions, with triplicate points at each concentration, 100 nM final top concentration) in assay buffer/1% DMSO was added (5 μL/well) and incubated for a further 30 minutes with a micro-clime lid at 37° C. (95% O2: 5% CO2), after which intracellular cAMP levels were quantified and samples measured as described previously. Experiments passed quality control if the agonist concentration used for stimulation fell between the on-the-day EC50-EC90. […]
As for `CC(C)c1ccc(NC(=O)N2CCC[C@@H]2C(=O)Nc2ccc(-c3ccc(C(=O)O)cc3)cc2)cc1` [Example 4, 4′-[(1-{[4-(Propan-2-yl)phenyl]carbamoyl}-D-prolyl)amino][1,1′-biphenyl]-4-carboxylic acid], the negative-log IC50 (pIC50) (as a rule, the negative decadic logarithm of the IC50, by convention in mol/L) is 8.39.
In the case of `CC(C)c1ccc(NC(=O)N2CCC[C@@H]2C(=O)Nc2ccc(-c3ccc(C(=O)O)cc3)cn2)cc1` [Example 5, Ammonium 4-{6-[(1-{[4-(propan-2-yl)phenyl]carbamoyl}-D-prolyl)amino]pyridin-3-yl}benzoate], the pIC50 was 8.04.
As to `CC(C)c1ccc(NC(=O)N2CCC[C@@H]2C(=O)Nc2ccc(-c3ccc(C(=O)O)cc3)cc2F)cc1` [Example 6, 3′-Fluoro-4′-[(1-{[4-(propan-2-yl)phenyl]carbamoyl}-D-prolyl)amino][1,1′-biphenyl]-4-carboxylic acid], the pIC50 is 8.19.
For `O=C(O)c1ccc(-c2ccc(NC(=O)[C@H]3CCCN3C(=O)Nc3ccc(C4CC4)cc3)cc2)cc1` [Example 7, Ammonium 4′-({1-[(4-cyclopropylphenyl)carbamoyl]-D-prolyl}amino)[1,1′-biphenyl]-4-carboxylate] the value was 8.09; for `CC(C)c1ccc(NC(=O)N2CCC[C@@H]2C(=O)Nc2ccc(-c3ncc(C(=O)O)cn3)cc2)cc1` [Example 8, ammonium 2-{4-[(1-{[4-(propan-2-yl)phenyl]carbamoyl}-D-prolyl)amino]phenyl}pyrimidine-5-carboxylate], 6.82; for `CC(C)c1ccc(NC(=O)N2CCC[C@@H]2C(=O)Nc2ccc(-c3cccc(C(=O)O)n3)cc2)cc1` [Example 9, ammonium 6-{4-[(1-{[4-(propan-2-yl)phenyl]carbamoyl}-D-prolyl)amino]phenyl}pyridine-2-carboxylate], 6.89.
For the compound `CC(C)c1ccc(NC(=O)N2CCC[C@@H]2C(=O)Nc2ccc3cc(C(=O)O)ccc3c2)cc1` [Example 10, 6-[(1-{[4-(propan-2-yl)phenyl]carbamoyl}-D-prolyl)amino]naphthalene-2-carboxylic acid], the negative-log IC50 (pIC50) is 7.17.
The value for `Cc1cc(NC(=O)[C@H]2CCCN2C(=O)Nc2ccc(C(C)C)cc2)cc2ccc(C(=O)O)nc12` [Example 11, 8-methyl-6-[(1-{[4-(propan-2-yl)phenyl]carbamoyl}-D-prolyl)amino]quinoline-2-carboxylic acid, trifluoroacetate salt] was 6.74; that for `C=C(C)c1ccc(NC(=O)N2CCC[C@@H]2C(=O)Nc2ccc(-c3ccc(C(=O)O)cc3)cc2)cc1` [Example 12, 4′-[(1-{[4-(prop-1-en-2-yl)phenyl]carbamoyl}-D-prolyl)amino][1,1′-biphenyl]-4-carboxylic acid] was 8.00.
For `O=C(O)c1ccc(-c2ccc(NC(=O)[C@H]3CCCN3C(=O)Nc3ccc(Cl)cc3)cc2)cc1` [Example 13, ammonium 4′-({1-[(4-chlorophenyl)carbamoyl]-D-prolyl}amino)[1,1′-biphenyl]-4-carboxylate] the value was 7.92.
The value for `CC(C)c1ccc(NC(=O)N2CCC[C@@H]2C(=O)Nc2ccc(-c3ccnc(C(=O)O)c3)cc2)cc1` [Example 14, ammonium 4-{4-[(1-{[4-(propan-2-yl)phenyl]carbamoyl}-D-prolyl)amino]phenyl}pyridine-2-carboxylate] was 7.06; that for `CC(C)c1ccc(NC(=O)N2CCC[C@@H]2C(=O)Nc2c(F)cc(-c3ccc(C(=O)O)cc3)cc2F)cc1` [Example 15, 3′,5′-difluoro-4′-[(1-{[4-(propan-2-yl)phenyl]carbamoyl}-D-prolyl)amino][1,1′-biphenyl]-4-carboxylic acid] was 8.09.
Take `O=C(O)c1ccc(-c2ccc(NC(=O)[C@H]3CCCN3C(=O)Nc3ccc(C(F)(F)F)cc3)cc2)cc1` [Example 16, Ammonium 4′-[(1-{[4-(trifluoromethyl)phenyl]carbamoyl}-D-prolyl)amino][1,1′-biphenyl]-4-carboxylate]: the negative-log IC50 (pIC50) was 8.43.
The value for `Cc1cc(NC(=O)N2CCC[C@@H]2C(=O)Nc2ccc(-c3ccc(C(=O)O)nc3)cc2)ccc1C(F)(F)F` [Example 17, 5-{4-[(1-{[3-Methyl-4-(trifluoromethyl)phenyl]carbamoyl}-D-prolyl)amino]phenyl}pyridine-2-carboxylic acid] was 7.85; that for `CC(C)c1ccc(NC(=O)N2CCC[C@@H]2C(=O)Nc2ccc(-c3ccc(C(=O)O)cc3)nc2)cc1` [Example 18, 4-{5-[(1-{[4-(Propan-2-yl)phenyl]carbamoyl}-D-prolyl)amino]pyridin-2-yl}benzoic acid] was 7.82; that for `Cc1cc(NC(=O)N2CCC[C@@H]2C(=O)Nc2ccc(-c3ccc(C(=O)O)nc3)cc2)ccc1C(C)C` [Example 19, 5-{4-[(1-{[3-Methyl-4-(propan-2-yl)phenyl]carbamoyl}-D-prolyl)amino]phenyl}pyridine-2-carboxylic acid] was 7.96.
For `Cc1nc(C(=O)O)ccc1-c1ccc(NC(=O)[C@H]2CCCN2C(=O)Nc2ccc(C(C)C)cc2)cc1` [Example 20, 6-Methyl-5-{4-[(1-{[4-(propan-2-yl)phenyl]carbamoyl}-D-prolyl)amino]phenyl}pyridine-2-carboxylic acid] the value was 7.92.
Consider `COc1cc(-c2ccc(NC(=O)[C@H]3CCCN3C(=O)Nc3ccc(C(C)C)cc3)cc2)ccc1C(=O)O` [Example 21, 3-Methoxy-4′-[(1-{[4-(propan-2-yl)phenyl]carbamoyl}-D-prolyl)amino][1,1′-biphenyl]-4-carboxylic acid], for which the negative logarithm of the IC50 (pIC50) was 7.96.
Consider `O=C(O)c1ccc(-c2ccc(NC(=O)[C@H]3CCCN3C(=O)Nc3ccc(C(F)(F)F)cc3)cn2)cc1` [Example 22, 4-{5-[(1-{[4-(Trifluoromethyl)phenyl]carbamoyl}-D-prolyl)amino]pyridin-2-yl}benzoic acid], for which the negative-log IC50 (pIC50) is 7.21.
The value for `O=C(O)c1ccc(-c2ccc(NC(=O)[C@H]3CCCN3C(=O)Nc3ccc(C4CCC4)cc3)cc2)cc1` [Example 23, 4′-({1-[(4-Cyclobutylphenyl)carbamoyl]-D-prolyl}amino)[1,1′-biphenyl]-4-carboxylic acid] was 8.57.
`O=C(O)c1ccc(-c2cnc(NC(=O)[C@H]3CCCN3C(=O)Nc3ccc(C(F)(F)F)cc3)c(F)c2)cc1` [Example 24, 4-{5-Fluoro-6-[(1-{[4-(trifluoromethyl)phenyl]carbamoyl}-D-prolyl)amino]pyridin-3-yl}benzoic acid]: the pIC50 was 6.96.
The value for `CC(C)c1ccc(NC(=O)N2CCC[C@@H]2C(=O)Nc2ncc(-c3ccc(C(=O)O)cc3)cc2F)cc1` [Example 25, 4-{5-Fluoro-6-[(1-{[4-(propan-2-yl)phenyl]carbamoyl}-D-prolyl)amino]pyridin-3-yl}benzoic acid] was 7.07.

The values above are taken from patent publication US20240366598A1, “GLUCOSE-DEPENDENT INSULINOTROPIC POLYPEPTIDE RECEPTOR ANTAGONISTS AND USES THEREOF” (Pfizer Inc., priority 2023, published 2024).
